Assay [1] has as its target T1, Phospho-EGFR (Tyr1068) in H1975 cells (Homo sapiens, UniProt P00533, L858R/T790M).
T1 construct: host or cells: H1975
The experiment in a line: HTRF pEGFR/total EGFR in H1975 cells. The settings on record: ratio pEGFR/total EGFR, compound 3 hours. It counts as cell-based. The method in brief:
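H1975 cells (EGFR L858R/T790M) treated 3 h with compound in 0.1% DMSO, in duplicate, 24 h after plating. Lysates assayed by HTRF for pEGFR (Tyr1068) and total EGFR at 665/620 nm; values are pEGFR/total EGFR ratio as percent of 0 μM control.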
Background: In TR-FRET formats the signal depends on donor and acceptor labels being close together.

Assay [2] deals with T2, Phospho-EGFR (Tyr1068) in H1975 C797S cells (CRISPR-edited EGFR C797S) (Homo sapiens, UniProt P00533, C797S/L858R/T790M).
T2 construct: host or cells: H1975 C797S (CRISPR-edited)
The experiment in a line: HTRF pEGFR/total EGFR in H1975 C797S cells. It is filed as cell-based. To be noted: ratio pEGFR/total EGFR, compound 3 hours. The method in brief:
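Adhered H1975 C797S cells got compound for 3 h in duplicate at 0.1% DMSO final, then were lysed 30 min at room temperature. HTRF kits quantified phospho-EGFR (Tyr1068) and total EGFR (665/620 nm); results are pEGFR/total EGFR ratio as percent of 0 μM control.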

In assay [3] the target is T3, Phospho-EGFR (Tyr1068) in A431 cells (Homo sapiens, UniProt P00533).
T3 construct: endogenous in cells; host or cells: A431
In words: HTRF pEGFR/total EGFR in A431 cells with EGF stimulation. It counts as cell-based. The settings on record: ratio pEGFR/total EGFR, compound 2.5 hours then 100 ng/ml EGF 30 mins. The essentials:
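A431 cells were plated at 20,000 per well, allowed 24 h to adhere, then given compound for 2.5 h (0.1% DMSO final). They were then stimulated with 100 ng/ml EGF for 30 min and lysed. HTRF measured Tyr1068-phospho and total EGFR at 665/620 nm, with pEGFR/total EGFR expressed as % of the 0 μM control.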

For assay [4], the target named is CtermHisTag-mEGFR Wild type (Homo sapiens, UniProt P00533). In words: biochemical.

Each structure is given as a SMILES string.

The term IC50 denotes the point on the concentration scale where inhibition reaches its midpoint.

CtermHisTag-mEGFR Wild type, sequence (P00533 whole entry): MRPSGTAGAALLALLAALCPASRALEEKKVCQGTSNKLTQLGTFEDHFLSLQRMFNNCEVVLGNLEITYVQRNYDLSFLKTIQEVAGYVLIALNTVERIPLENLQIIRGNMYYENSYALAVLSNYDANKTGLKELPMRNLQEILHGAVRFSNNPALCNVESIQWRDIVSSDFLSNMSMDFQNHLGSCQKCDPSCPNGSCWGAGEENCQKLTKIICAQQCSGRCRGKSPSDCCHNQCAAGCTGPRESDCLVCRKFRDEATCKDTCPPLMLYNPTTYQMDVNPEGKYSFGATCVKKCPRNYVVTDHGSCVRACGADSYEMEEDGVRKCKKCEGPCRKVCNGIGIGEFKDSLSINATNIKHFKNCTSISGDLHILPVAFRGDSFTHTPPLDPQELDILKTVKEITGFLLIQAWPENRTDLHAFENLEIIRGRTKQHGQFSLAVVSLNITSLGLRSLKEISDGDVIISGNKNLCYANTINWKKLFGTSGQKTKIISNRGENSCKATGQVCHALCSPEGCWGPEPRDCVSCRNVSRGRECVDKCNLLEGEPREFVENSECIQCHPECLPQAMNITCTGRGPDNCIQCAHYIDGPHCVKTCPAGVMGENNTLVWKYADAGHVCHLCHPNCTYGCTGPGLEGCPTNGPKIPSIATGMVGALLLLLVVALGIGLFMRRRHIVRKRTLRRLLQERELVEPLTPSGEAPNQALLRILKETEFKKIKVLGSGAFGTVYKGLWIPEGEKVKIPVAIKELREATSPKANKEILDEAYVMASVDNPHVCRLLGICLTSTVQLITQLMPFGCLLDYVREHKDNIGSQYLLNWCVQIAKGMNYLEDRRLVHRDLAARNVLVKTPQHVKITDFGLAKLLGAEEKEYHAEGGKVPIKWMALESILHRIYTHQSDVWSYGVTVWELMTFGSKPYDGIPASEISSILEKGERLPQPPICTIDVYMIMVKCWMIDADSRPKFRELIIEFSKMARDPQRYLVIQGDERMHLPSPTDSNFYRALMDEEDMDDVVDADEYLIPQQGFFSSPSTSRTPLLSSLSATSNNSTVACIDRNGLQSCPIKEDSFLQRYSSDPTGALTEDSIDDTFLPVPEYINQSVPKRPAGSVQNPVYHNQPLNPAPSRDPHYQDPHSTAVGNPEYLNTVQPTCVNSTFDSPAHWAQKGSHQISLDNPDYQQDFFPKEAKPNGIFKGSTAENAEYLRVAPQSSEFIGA
T3 sequence (P00533 25-1210): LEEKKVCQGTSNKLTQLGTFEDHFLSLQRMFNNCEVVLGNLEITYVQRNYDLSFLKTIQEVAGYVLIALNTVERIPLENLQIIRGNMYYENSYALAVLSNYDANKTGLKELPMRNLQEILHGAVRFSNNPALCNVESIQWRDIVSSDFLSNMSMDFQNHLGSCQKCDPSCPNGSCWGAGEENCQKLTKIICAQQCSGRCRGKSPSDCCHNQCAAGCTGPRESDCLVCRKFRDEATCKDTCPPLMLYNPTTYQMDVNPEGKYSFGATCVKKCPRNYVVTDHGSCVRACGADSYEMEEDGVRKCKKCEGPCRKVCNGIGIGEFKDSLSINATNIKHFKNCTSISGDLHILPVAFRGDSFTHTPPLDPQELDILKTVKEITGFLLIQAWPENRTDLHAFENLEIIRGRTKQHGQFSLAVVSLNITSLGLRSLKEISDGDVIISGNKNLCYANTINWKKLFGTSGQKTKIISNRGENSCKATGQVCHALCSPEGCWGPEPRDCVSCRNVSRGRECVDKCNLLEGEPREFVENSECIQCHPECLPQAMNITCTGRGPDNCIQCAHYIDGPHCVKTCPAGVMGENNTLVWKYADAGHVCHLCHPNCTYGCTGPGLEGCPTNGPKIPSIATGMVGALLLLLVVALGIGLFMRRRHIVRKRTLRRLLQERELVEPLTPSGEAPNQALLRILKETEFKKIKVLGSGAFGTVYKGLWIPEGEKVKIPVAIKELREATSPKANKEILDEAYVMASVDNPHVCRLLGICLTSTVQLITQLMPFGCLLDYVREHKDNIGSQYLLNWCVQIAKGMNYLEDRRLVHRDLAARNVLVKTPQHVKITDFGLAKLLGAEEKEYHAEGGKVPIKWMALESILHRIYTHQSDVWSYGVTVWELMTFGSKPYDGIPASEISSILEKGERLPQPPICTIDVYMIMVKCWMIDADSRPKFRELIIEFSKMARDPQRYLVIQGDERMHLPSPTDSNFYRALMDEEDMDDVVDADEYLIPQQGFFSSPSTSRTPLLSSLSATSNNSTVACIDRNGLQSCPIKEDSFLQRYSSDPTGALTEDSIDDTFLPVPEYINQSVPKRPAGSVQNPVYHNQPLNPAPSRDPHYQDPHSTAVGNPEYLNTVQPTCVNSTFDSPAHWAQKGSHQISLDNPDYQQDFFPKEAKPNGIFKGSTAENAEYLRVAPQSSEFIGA
T2 sequence (P00533 25-1210 T790M/C797S/L858R): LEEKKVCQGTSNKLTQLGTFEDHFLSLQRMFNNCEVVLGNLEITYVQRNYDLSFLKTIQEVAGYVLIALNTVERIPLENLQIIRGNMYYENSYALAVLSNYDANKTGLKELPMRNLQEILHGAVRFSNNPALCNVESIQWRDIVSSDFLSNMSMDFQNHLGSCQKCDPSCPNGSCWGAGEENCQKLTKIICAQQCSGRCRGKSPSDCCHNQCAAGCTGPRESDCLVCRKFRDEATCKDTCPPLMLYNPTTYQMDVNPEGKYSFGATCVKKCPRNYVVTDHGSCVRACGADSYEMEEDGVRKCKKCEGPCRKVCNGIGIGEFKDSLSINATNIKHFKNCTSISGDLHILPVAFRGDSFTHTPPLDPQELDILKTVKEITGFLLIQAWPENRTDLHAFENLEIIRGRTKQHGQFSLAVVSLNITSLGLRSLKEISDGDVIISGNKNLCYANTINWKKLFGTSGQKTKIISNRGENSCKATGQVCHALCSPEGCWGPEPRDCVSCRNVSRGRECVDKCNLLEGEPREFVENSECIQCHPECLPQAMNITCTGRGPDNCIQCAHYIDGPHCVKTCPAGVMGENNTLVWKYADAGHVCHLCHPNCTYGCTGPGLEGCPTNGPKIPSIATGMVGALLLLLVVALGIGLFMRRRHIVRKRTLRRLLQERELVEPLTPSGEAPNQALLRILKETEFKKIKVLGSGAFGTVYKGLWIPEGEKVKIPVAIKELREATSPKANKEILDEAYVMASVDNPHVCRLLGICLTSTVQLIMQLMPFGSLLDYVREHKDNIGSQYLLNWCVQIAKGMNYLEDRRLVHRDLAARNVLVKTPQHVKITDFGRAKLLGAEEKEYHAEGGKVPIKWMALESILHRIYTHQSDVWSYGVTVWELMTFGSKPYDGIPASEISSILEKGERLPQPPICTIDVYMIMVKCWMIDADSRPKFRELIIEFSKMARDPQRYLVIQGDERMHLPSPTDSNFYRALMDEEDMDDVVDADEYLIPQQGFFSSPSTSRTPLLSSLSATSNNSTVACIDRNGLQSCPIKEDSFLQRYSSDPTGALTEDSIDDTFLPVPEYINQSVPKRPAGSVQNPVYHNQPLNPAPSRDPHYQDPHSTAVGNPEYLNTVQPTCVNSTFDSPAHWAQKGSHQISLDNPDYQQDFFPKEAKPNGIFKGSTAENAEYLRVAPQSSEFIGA
T1 sequence (P00533 25-1210 T790M/L858R): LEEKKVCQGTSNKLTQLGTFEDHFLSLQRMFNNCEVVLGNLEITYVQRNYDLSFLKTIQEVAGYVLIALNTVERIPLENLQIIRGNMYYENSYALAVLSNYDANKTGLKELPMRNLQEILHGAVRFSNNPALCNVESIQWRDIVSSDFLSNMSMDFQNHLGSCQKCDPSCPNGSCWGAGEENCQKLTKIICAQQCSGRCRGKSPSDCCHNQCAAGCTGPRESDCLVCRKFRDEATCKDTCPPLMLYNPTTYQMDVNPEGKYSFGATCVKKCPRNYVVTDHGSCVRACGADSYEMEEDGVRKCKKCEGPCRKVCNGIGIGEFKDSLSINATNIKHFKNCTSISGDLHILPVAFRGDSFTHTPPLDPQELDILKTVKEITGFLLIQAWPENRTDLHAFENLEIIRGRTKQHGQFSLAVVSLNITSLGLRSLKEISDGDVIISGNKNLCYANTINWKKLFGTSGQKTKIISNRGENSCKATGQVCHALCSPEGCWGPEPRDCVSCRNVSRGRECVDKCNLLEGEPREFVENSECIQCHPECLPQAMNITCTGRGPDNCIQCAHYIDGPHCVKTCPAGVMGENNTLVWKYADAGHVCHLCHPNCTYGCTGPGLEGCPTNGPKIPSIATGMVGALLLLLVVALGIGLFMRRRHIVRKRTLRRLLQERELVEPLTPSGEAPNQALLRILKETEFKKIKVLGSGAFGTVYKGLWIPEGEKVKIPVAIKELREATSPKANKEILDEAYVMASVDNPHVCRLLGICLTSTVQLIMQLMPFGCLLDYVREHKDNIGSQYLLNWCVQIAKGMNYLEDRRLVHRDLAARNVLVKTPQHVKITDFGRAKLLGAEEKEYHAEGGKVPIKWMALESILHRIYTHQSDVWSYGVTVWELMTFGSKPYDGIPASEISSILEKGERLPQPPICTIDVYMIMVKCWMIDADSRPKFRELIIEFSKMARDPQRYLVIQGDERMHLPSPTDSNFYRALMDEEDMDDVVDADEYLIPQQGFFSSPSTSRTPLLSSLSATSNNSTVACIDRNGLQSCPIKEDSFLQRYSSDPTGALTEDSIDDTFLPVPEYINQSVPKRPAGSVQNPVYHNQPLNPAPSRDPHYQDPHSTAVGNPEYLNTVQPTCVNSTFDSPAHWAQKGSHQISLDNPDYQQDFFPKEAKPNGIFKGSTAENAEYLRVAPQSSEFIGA

Take `C#Cc1cc(=O)n2c3nc(ncc13)Nc1ccc(N3CCN(C)CC3)c(c1)CCNC(=O)C2` [Example 227, 1^5-Ethynyl-3^4-(4-Methylpiperazin-1-yl)-1^7,1^8-dihydro-2,6-diaza-1(2,8)-pyrido[2,3-d]pyrimidina-3(1,3)-benzenacyclooctaphane-1^7,7-dione]: the half-inhibitory concentration (IC50) in assay [1] is over 3 µM; in assay [2], over 3 µM; in assay [3], over 3 µM; in assay [4] it was 1000 to 10000 nM.

`C=Cc1cc(=O)n(-c2cccc(OC)c2)c2nc(Nc3ccccc3OC)ncc12` [Example 156, 8-(3-Methoxyphenyl)-2-((2-methoxyphenyl)amino)-5-vinylpyrido[2,3-d]pyrimidin-7(8H)-one]: the half-maximal inhibitory concentration (IC50) was over 3 µM in assay [1], over 3 µM in assay [2], over 3 µM in assay [3] and over 10000 nM in assay [4].

For `C#Cc1cc(=O)n(-c2cccc([N+](=O)[O-])c2)c2nc(Nc3ccccc3OC)ncc12` [Example 54, 5-Ethynyl-2-((2-methoxyphenyl)amino)-8-(3-nitrophenyl)pyrido[2,3-d]pyrimidin-7(8H)-one], the 50% inhibitory concentration (IC50) in assay [1] is over 3 µM; in assay [2], over 3 µM; in assay [3], over 3 µM; in assay [4], over 10000 nM.

As for `C=Cc1c(-c2ccccc2Cl)c(=O)n(C)c2nc(Nc3ccc(N4CCN(C)CC4)cc3OC)ncc12` [Example 170, 6-(2-chlorophenyl)-5-ethenyl-2-{[2-methoxy-4-(4-methylpiperazin-1-yl)phenyl]amino}-8-methylpyrido[2,3-d]pyrimidin-7-one], the 50% inhibitory concentration (IC50) in assay [1] is over 3 µM; in assay [2], over 3 µM; in assay [3], over 3 µM; in assay [4] it was over 10000 nM.

In the case of `C#Cc1c(C)c(=O)n2c3nc(ncc13)Nc1cccc(c1)OCCCC2` [Example 191, 1^5-ethynyl-1^6-methyl-1^7,1^8-dihydro-4-oxa-2-aza-1(2,8)-pyrido[2,3-d]pyrimidina-3(1,3)-benzenacyclooctaphan-1^7-one], the concentration for half-maximal inhibition (IC50) in assay [1] was over 3 µM; in assay [2] it was over 3 µM; in assay [3], over 3 µM; in assay [4], 1000 to 10000 nM.

`C#Cc1c(C)c(=O)n(Cc2cnc[nH]2)c2nc(Nc3ccc(N4CCN(C)CC4)cc3)ncc12` [Example 111, 5-ethynyl-8-(3H-imidazol-4-ylmethyl)-6-methyl-2-{[4-(4-methylpiperazin-1-yl)phenyl]amino}pyrido[2,3-d]pyrimidin-7-one]: the IC50 in assay [1] was 1 to 3 µM; in assay [2], 1 to 3 µM; in assay [3], over 3 µM; in assay [4], 1000 to 10000 nM.

Regarding `C#Cc1cc(=O)n(C2CCCC2)c2nc(Nc3cccc4c3CCN(C)C4)ncc12` [Example 185, 8-Cyclopentyl-5-ethynyl-2-[(2-methyl-3,4-dihydro-1H-isoquinolin-5-yl)amino]pyrido[2,3-d]pyrimidin-7-one], the 50% inhibitory concentration (IC50) in assay [1] was over 3 µM; in assay [2] it was over 3 µM; in assay [3], over 3 µM; in assay [4] it was over 10000 nM.

For the compound `C#Cc1cc(=O)n2c3nc(ncc13)Nc1ccc(N3CCN(C)CC3)c(c1)C(=O)NCCC2` [Example 224, 1^5-ethynyl-3^4-(4-methylpiperazin-1-yl)-1^7,1^8-dihydro-2,5-diaza-1(2,8)-pyrido[2,3-d]pyrimidina-3(1,3)-benzenacyclooctaphane-1^7,4-dione], the IC50 in assay [1] is over 3 µM; in assay [2], over 3 µM; in assay [3], over 3 µM; in assay [4], over 10000 nM.

As for `C#Cc1c(C)c(=O)n(C)c2nc(Nc3ccc(N4CCN(C)CC4)cc3)ncc12` [Example 149, 5-ethynyl-6,8-dimethyl-2-{[4-(4-methylpiperazin-1-yl)phenyl]amino}pyrido[2,3-d]pyrimidin-7-one], the IC50 in assay [1] was over 3 µM; in assay [2], over 3 µM; in assay [3], over 3 µM; in assay [4], 1000 to 10000 nM.

`C#Cc1cc(=O)n(-c2ccccc2)c2nc(Nc3ccc(N4CCN(C5COC5)CC4)cc3)ncc12` [Example 18, 5-Ethynyl-2-({4-[4-(oxetan-3-yl)piperazin-1-yl]phenyl}amino)-8-phenylpyrido[2,3-d]pyrimidin-7-one]: the IC50 in assay [1] is under 0.5 µM; in assay [2] it was under 0.5 µM; in assay [3], 1 to 3 µM; in assay [4] it was under 1000 nM.

Regarding `C#Cc1cc(=O)n(-c2ccccc2)c2nc(Nc3ccc(N4CCC(N5CCN(C)CC5)CC4)cc3)ncc12` [Example 23, 5-Ethynyl-2-({4-[4-(4-methylpiperazin-1-yl)piperidin-1-yl]phenyl}amino)-8-phenylpyrido[2,3-d]pyrimidin-7-one], the IC50 in assay [1] was under 0.5 µM; in assay [2] it was under 0.5 µM; in assay [3], 1 to 3 µM; in assay [4], under 1000 nM.

`C#Cc1c(Nc2ccccc2)c(=O)n(C)c2nc(Nc3ccc(N(C)CCN(C)C)cc3)ncc12` [Example 144, 2-[(4-{[2-(dimethylamino)ethyl](methyl)amino}phenyl)amino]-5-ethynyl-8-methyl-6-(phenylamino)pyrido[2,3-d]pyrimidin-7-one]: the half-inhibitory concentration (IC50) is 1 to 3 µM in assay [1], 1 to 3 µM in assay [2], under 0.5 µM in assay [3] and under 1000 nM in assay [4].

Turning to `C#Cc1c(C)c(=O)n(Cc2cnn(C)c2)c2nc(Nc3ccc(N4CCN(C)CC4)cc3)ncc12` [Example 180, 5-Ethynyl-6-methyl-2-{[4-(4-methylpiperazin-1-yl)phenyl]aminol}-8-[(1-methylpyrazol-4-yl)methyl]pyrido[2,3-d]pyrimidin-7-one], the concentration for half-maximal inhibition (IC50) was 1 to 3 µM in assay [1], 1 to 3 µM in assay [2], over 3 µM in assay [3] and 1000 to 10000 nM in assay [4].

For the compound `C#Cc1c(-c2ccccc2Cl)c(=O)n(C)c2nc(Nc3ccc(N(C)CCN(C)C)cc3)ncc12` [Example 126], the IC50 in assay [1] is 1 to 3 µM; in assay [2], over 3 µM; in assay [3], 1 to 3 µM; in assay [4], under 1000 nM.

Consider `C#Cc1cc(=O)n2c3nc(ncc13)Nc1ccc(N3CCN(C)CC3)c(c1)NC(=O)CCC2` [Example 222, 1^5-ethynyl-3^4-(4-methylpiperazin-1-yl)-1^7,1^8-dihydro-2,4-diaza-1(2,8)-pyrido[2,3-d]pyrimidina-3(1,3)-benzenacyclooctaphane-1^7,5-dione], for which the IC50 is under 0.5 µM in assay [1], under 0.5 µM in assay [2], 1 to 3 µM in assay [3] and under 1000 nM in assay [4].

Regarding `C#Cc1cc(=O)n2c3nc(ncc13)Nc1ccc(N3CCN(C)CC3)c(c1)CCOCC2` [Example 240, 1^5-Ethynyl-3^4-(4-methylpiperazin-1-yl)-1^7,1^8-dihydro-6-oxa-2-aza-1(2,8)-pyrido[2,3-d]pyrimidina-3(1,3)-benzenacyclooctaphan-1^7-one], the IC50 in assay [1] was under 0.5 µM; in assay [2], under 0.5 µM; in assay [3] it was 1 to 3 µM; in assay [4], under 1000 nM.

Take `C#Cc1cc(=O)n(-c2ccccc2)c2nc(Nc3ccc(N4CCN(C(C)C)CC4)cc3)ncc12` [Example 16, 5-Ethynyl-2-{[4-(4-isopropylpiperazin-1-yl)phenyl]amino}-8-phenylpyrido[2,3-d]pyrimidin-7-one]: the IC50 in assay [1] was under 0.5 µM; in assay [2], under 0.5 µM; in assay [3], 1 to 3 µM; in assay [4], under 1000 nM.

The values are drawn from patent publication US20260137703A1, “2-AMINO-PYRIDO[2,3-D]PYRIMIDIN-7(8H)-ONE AND 7-AMINO-1-PYRIMIDO[4,5-D]PYRIMIDIN-2(1 H)-ONE DERIVATIVES AS EGFR INHIBITORS FOR THE TREATMENT OF CANCER” (Cancer Research Technology Limited, priority 2022, published 2026).
